Test results taken from patent US20080261977A1, “Pyrimidine Derivatives as Cannabinoid Receptor Modulators” (priority 2004, published 2008).
Structures can show the parent of a compound that is named as a salt. Where two headings read alike, the source gives them in different places.

Tests used:
[1] = target: T1, human cannabinoid CB1 receptor (Homo sapiens, UniProt P21554); test: Cannabinoid CB1 receptor agonist activity, yeast (Saccharomyces cerevisiae) cells expressing the receptor, FDGlu fluorescence; assay type: cell-based; settings: for Emax: read-out: efficacy (Emax relative to HU210) at the cloned human CB1 receptor
T1 construct: expressed in transfected cells; host or cells: Saccharomyces cerevisiae strain MMY23 (cassette integrated at the ura3 locus; chimeric Gpa1/Gαi3)
T1 sequence (P21554 whole entry): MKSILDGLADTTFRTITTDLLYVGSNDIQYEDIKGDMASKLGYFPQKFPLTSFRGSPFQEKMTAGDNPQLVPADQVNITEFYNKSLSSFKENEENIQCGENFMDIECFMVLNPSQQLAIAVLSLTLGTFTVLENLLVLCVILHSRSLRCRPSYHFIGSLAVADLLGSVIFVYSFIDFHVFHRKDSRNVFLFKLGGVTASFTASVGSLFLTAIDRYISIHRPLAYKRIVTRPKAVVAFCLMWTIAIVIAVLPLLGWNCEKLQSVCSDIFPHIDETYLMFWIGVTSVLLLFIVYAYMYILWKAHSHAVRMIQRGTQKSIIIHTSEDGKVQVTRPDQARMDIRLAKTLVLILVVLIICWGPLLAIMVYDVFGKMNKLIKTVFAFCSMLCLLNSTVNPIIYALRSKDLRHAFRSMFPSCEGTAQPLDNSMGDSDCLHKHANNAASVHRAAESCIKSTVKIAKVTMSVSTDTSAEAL
Procedure: The cannabinoid CB1 receptor agonist activity of the compounds of formula (I) was determined in accordance with the following experimental method.
Yeast (Saccharomyces cerevisiae) cells expressing the human cannabinoid CB1 receptor were generated by integration of an expression cassette into the ura3 chromosomal locus of yeast strain MMY23. This cassette consisted of DNA sequence encoding the human CB1 receptor flanked by the yeast GPD promoter to the 5′ end of CB 1 and a yeast transcriptional terminator sequence to the 3′ end of CB1. MMY23 expresses a yeast/mammalian chimeric G-protein alpha subunit in which the C-terminal 5 amino acids of Gpal are replaced with the C-terminal 5 amino acids of human Gαi3 (as described in Brown et al. (2000), Yeast 16:11-22). Cells were grown at 30° C. in liquid Synthetic Complete (SC) yeast media (Guthrie and Fink (1991), Methods in Enzymology, Vol. 194) lacking uracil, tryptophan, adenine and leucine to late logarithmic phase (approximately 6 OD600/ml).
Agonists were prepared as 10 mM stocks in DMSO. EC50 values (the concentration required to produce 50% maximal response) were estimated using dilutions of between 3- and 5-fold (BiomekFX, Beckman) into DMSO. Agonist solutions in DMSO (1% final assay volume) were transferred into black, clear bottom, microtitre plates from NUNC (96- or 384-well). Cells were suspended at a density of 0.2 OD600/ml in SC media lacking histidine, uracil, tryptophan, adenine and leucine and supplemented with 10 mM 3-aminotriazole, 0.1M sodium phosphate pH 7.0, and 20 μM fluorescein di-β-D-glucopyranoside (FDGlu). This mixture (50 ul per well for 384-well plates, 200 ul per well for 96-well plates) was added to agonist in the assay plates (Multidrop 384, Labsystems). After incubation at 30° C. for 24 hours, fluorescence resulting from degradation of FDGlu to fluorescein due to exoglucanase, an endogenous yeast enzyme produced during agonist-stimulated cell growth, was determined using a Spectrofluor microtitre plate reader (Tecan; excitation wavelength: 485 nm; emission wavelength: 535 nm). Fluorescence was plotted against compound concentration and iteratively curve fitted using a four parameter fit to generate a concentration effect value. Efficacy (Emax) was calculated from the equation […]
where Max[compound X] and Min[compound X] are the fitted maximum and minimum respectively from the concentration effect curve for compound X, and Max[HU210] and Min[HU210] are the fitted maximum and minimum respectively from the concentration effect curve for (6aR,10aR)-3-(1,1′-Dimethylheptyl)-6a,7,10,10a-tetrahydro-1 hydroxy-6,6-dimethyl-6H-dibenzo[b,d]pyran-9-methanol (HU210; available from Tocris). Equieffective molar ratio (EMR) values were calculated from the equation […]

[2] = target: T2, human cannabinoid CB2 receptor (Homo sapiens, UniProt P34972); test: Cannabinoid CB2 receptor agonist activity, yeast (Saccharomyces cerevisiae) cells expressing the receptor, FDGlu fluorescence; assay type: cell-based; settings: for Emax: read-out: efficacy (Emax relative to HU210) at the cloned human cannabinoid CB2 receptor
T2 construct: expressed in transfected cells; host or cells: Saccharomyces cerevisiae strain MMY23 (cassette integrated at the ura3 locus; chimeric Gpa1/Gαi3)
T2 sequence (P34972 whole entry): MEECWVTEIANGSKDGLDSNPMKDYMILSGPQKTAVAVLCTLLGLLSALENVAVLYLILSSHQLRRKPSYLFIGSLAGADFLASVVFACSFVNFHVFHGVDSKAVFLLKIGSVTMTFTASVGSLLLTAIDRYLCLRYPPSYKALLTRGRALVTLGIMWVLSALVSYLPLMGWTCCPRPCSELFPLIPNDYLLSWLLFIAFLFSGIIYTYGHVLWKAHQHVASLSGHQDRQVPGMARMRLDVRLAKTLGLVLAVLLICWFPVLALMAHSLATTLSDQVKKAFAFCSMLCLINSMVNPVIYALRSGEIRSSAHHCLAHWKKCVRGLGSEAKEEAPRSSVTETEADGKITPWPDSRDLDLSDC
Method in brief: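 S. cerevisiae MMY23 expressing human CB2 with a Gpa1/Gαi3 chimeric G-protein were incubated 24 h at 30° C with agonist in selective medium containing 3-aminotriazole and FDGlu, pH 7.0. Growth-linked fluorescein fluorescence (485/535 nm) gave EC50 by four-parameter fit; Emax and EMR expressed relative to HU210.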

SMILES	EC50 [1]	Emax [1]	EC50 [2]	Emax [2]	EC50 ([1]; yeast agonist assay, read-out: EC50 at the cloned human CB1 receptor)	EC50 ([2]; yeast agonist assay, read-out: EC50 at the cloned human cannabinoid CB2 receptor)	Emax ([2]; yeast agonist assay)
CC(NCC1CCOCC1)c1cnc(Nc2ccc(Cl)cc2Cl)nc1C(F)(F)F (centres unmarked) [Example 91, (2,4-Dichlorophenyl)-(5-{1-[(tetrahydro-pyran-4-ylmethyl)-amino]-ethyl}-4-trifluoromethyl-pyrimidin-2-yl)-amine]	300 to 1000 nM	50 to 100%	< 300 nM	> 50%	–	–	–
CC(NCC1CCCCC1)c1cnc(Nc2cccc(Cl)c2)nc1C(F)(F)F (centres unmarked) [Example 89, (3-Chlorophenyl)-{5-[1-(cyclohexylmethyl-amino)-ethyl]-4-trifluoromethyl-pyrimidin-2-yl}-amine, formate]	–	50 to 100%	–	–	300 to 1000 nM	< 300 nM	> 50%
